Laboratory results as given in US20250000924A1, “Composition for the prevention, improvement or treatment of allergic disease comprising an extract of Taxus cuspidata as an active ingredient” (KOREA INSTITUTE OF SCIENCE AND TECHNOLOGY, priority 2023, published 2025).

Test system: mast cells
Assay: Anti-allergic effect of active ingredients derived from Taxus cuspidata extract (degranulation, PGE2, TNF-α, IL-4 overall)
Assay type: cell-based, rat
Settings: overall statement on FIGS. 13 to 16; compounds at 20 μM
Experimental: Mast cells were cultured in the same manner as in Example 2 above, and then treated with the nine compounds isolated in Example 11 above at a concentration of 20 μM, respectively.
Mast cells were cultured in the same manner as in Example 3 above, and then treated with the nine compounds isolated in Example 11 above at a concentration of 20 μM, respectively.
• treated with the 9 compounds isolated in Example 11 at a concentration of 20 μM, respectively.
Mast cells were cultured in the same manner as in Example 5 above, and then treated with the nine compounds isolated in Example 11 above at a concentration of 20 μM, respectively.

SMILES	anti-allergy effects
OCCCc1ccc(O)cc1 [3-(4-Hydroxyphenyl)-1-propanol]	excellent
O=Cc1ccc(O)cc1 [4-hydroxyl benzandehyde]	excellent
COc1cc(O)cc(OC)c1 [Taxicatigenin]	excellent
